Assay results as given in PubChem BioAssay (NCI).
“And” between values parts separate entries of the source, which are not always exact repeats. Equal values may be shown once.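 Cultured in 96-well plates, cells were exposed to test compound for 48 hours across five concentrations. GI50 = concentration required for 50% inhibition of growth. Definition used: TGI = concentration required for complete inhibition of growth.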

How the values were obtained:
Assay in all cases: NCI anticancer screen, dose series, 48 h
A498 renal = tested on: A498 renal
ACHN renal = tested on: ACHN renal
HT29 colon = tested on: HT29 colon
M14 melanoma = tested on: M14 melanoma
NCI-H522 lung = tested on: NCI-H522 lung
PC-3 prostate = tested on: PC-3 prostate
SK-MEL-28 melanoma = tested on: SK-MEL-28 melanoma
SNB-19 CNS = tested on: SNB-19 CNS

Structure (SMILES)	GI50 (A498 renal) [µM]	TGI (A498 renal) [µM]	GI50 (ACHN renal) [µM]	TGI (ACHN renal) [µM]	GI50 (HT29 colon)	TGI (HT29 colon) [µM]	GI50 (M14 melanoma)	TGI (M14 melanoma) [µM]	GI50 (NCI-H522 lung)	TGI (NCI-H522 lung) [µM]	GI50 (PC-3 prostate) [µM]	TGI (PC-3 prostate) [µM]	GI50 (SK-MEL-28 melanoma) [µM]	TGI (SK-MEL-28 melanoma) [µM]	GI50 (SNB-19 CNS)	TGI (SNB-19 CNS) [µM]
CCc1cccc(C)c1NC(=O)c1sc2nc3c(cc2c1N)CCCCC3	2.2	23.3	7.45	> 100	3.26 µM	24.7	2.53 µM	> 100	2.78 µM	41.9	3.19	> 100	12	> 100	4.07 µM	> 100
COc1cc(-c2cc3ncccc3c3nc(N)c4cccnc4c23)cc(OC)c1OC			0.769	19.1	0.0762 µM	15.5	0.284 µM	3.02	0.0576 µM	12	0.579	> 100	2.93	> 100	0.737 µM	> 100
COCCCNC(=O)C1C(=O)N(CCCOC)C(=O)/C1=N\N (stereo not drawn)		> 100		> 100		> 100		> 100		> 100				> 100		> 100
C=C1C(=O)O[C@H]2C[C@@H]1CC/C(C)=C/CC/C(C)=C/CC[C@H]2C	20.6	36.6	10.6	24.6	28.3 µM	> 100	14.2 µM	29.3	23.5 µM	> 66.3	8.54	20.9	21.4	42.9	23.2 µM	55.2
O=C(CO[N+](=O)[O-])Nc1ccc(C(=O)/C=C/c2ccc(Cl)cc2)cc1	15.4	54.9	3.3	17	2.36 µM	6.36	2.05 µM	4.96	2.31 µM	8.37	2.74	14.8	4.96	18.1	4.11 µM	18.4
CCN(Cc1cccc(F)c1)c1ccc(CO)c(Cl)c1	0.0356	0.169	29.4	> 100	3.42 µM	> 51.4	19.2 µM	66.8	19.2 µM	58.6	21.8	> 82.5	16.2	45.5	21.8 µM	> 92.6
COc1ccc(S(=O)(=O)N2CC(C)(C)CN(S(=O)(=O)c3ccc(OC)cc3)C2C(=O)NO)cc1	> 20	> 20	> 20	> 20	> 20 µM	> 20	> 20 µM	> 20	> 20 µM	> 20	> 20	> 20	> 20	> 20	> 20 µM	> 20
CN[C@H]1C=C[C@@H]2/C=C(C)/C=C/[C@@H](C)[C@H]([C@H](C)[C@H](O)[C@@H](C)NC(C)=O)OC(=O)/C=C/C=C(C)\C=C\[C@]2(C)C1	0.0113	2.67	0.0146	> 49	< 0.001 µM and 0.0049 µM	> 49	< 0.001 µM and 0.0049 µM	7.24	0.045 µM and 0.0229 µM	13.1	0.0049	> 49	0.00898	33.6	0.0795 µM and 0.0718 µM	> 49
CN(C)CCCOc1ccc(-c2ccc3ncc4c(c3c2)n(C2CCOCC2)c(=O)n4C)cn1	0.559	3.64	2	12.6	1.95 µM	13.5	1.78 µM	13.8	0.985 µM	12.4	0.861	13.8	1.97	13	4.71 µM	18.7
COC(=O)[C@@H](C)C[C@H](Cc1ccccc1)NC(=O)c1csc(CC[C@H](C(C)C)N(C)C(=O)[C@@H](NC(=O)[C@H]2CCCCN2C)C(C)C)n1	0.19	1.56	0.324	> 33.3	0.211 µM	6.01	0.262 µM	1.52	0.0656 µM	0.301	0.383	> 33.3	1.45	> 33.3	0.168 µM	> 33.3
CC[N+](CC)=c1sc2c(s1)C(c1ccc(Cl)cc1)Oc1ccc(Cl)cc1-2 (stereo not drawn)	3.37	10.2	11.3	23.9	2.2 µM	5.07	1.86 µM	4	0.67 µM	2.89	1.38	3.28	1.32	2.82	0.487 µM	1.84
S=C(Nc1ccc(Br)cc1)Nc1ccc(Br)cc1	5.38	> 100	4.25	> 100	7.22 µM	> 100	8.3 µM	> 100	2.92 µM	98.6	4.17	> 100	49.8	> 100	17.2 µM	> 100
CCC[CH2][Sn]([CH2]CCC)([CH2]CCC)[O]c1ccc(Cl)cc1Cl	0.0565	0.21	0.155	0.291	0.118 µM	0.293	0.143 µM	0.284	0.149 µM	0.297	0.15	0.443	0.162	0.302	0.175 µM	0.344
Cc1sc2nc(-c3ccncc3)c(/C=N/N=C(N)N)n2c1C	25.8	> 100	49.7	> 100	40 µM	> 100	60.2 µM	> 100			58.4	> 100	68.9	> 100	36.3 µM	> 100
COC(=O)CCc1c[nH]c2ccc(N(CCCl)CCCl)cc12	3.4	18.2	0.383		2.3 µM	44.7	1.73 µM	11.5	1.79 µM	6.02	8.65	> 73.4	10.5	33.6	3.43 µM	> 76.2
Cc1nn(-c2nc3ccccc3[nH]2)c(N)c1-c1ccc(Cl)cc1	3.02	> 100	4.6	> 100	4.35 µM	67.8	6.68 µM	> 100	4.04 µM	> 100	2.97	> 100	20.9	> 100	4.14 µM	> 100
Nc1ccc(C2=NN(c3ccccc3)C(c3ccc(Cl)cc3)C2)cc1 (stereo not drawn)	1.9	13	1.8	3.57	1.96 µM	4.49	2.35 µM	5.34	1.51 µM	3.27			2.07	4.68	2.9 µM	14.1

Structure (SMILES)	GI50 (A498 renal) [µM]	TGI (A498 renal) [µM]	GI50 (ACHN renal) [µM]	TGI (ACHN renal) [µM]	GI50 (HT29 colon)	TGI (HT29 colon) [µM]	GI50 (M14 melanoma)	TGI (M14 melanoma) [µM]	GI50 (NCI-H522 lung)	TGI (NCI-H522 lung) [µM]	GI50 (PC-3 prostate) [µM]	TGI (PC-3 prostate) [µM]	GI50 (SK-MEL-28 melanoma) [µM]	TGI (SK-MEL-28 melanoma) [µM]	GI50 (SNB-19 CNS)	TGI (SNB-19 CNS) [µM]
Cc1[nH]c2ccccc2c1C(=O)CC1(O)C(=O)Nc2ccccc21 (stereo not drawn)		> 100		> 100		> 100		> 100						> 100		> 100
OCc1ccc(-c2ccc(-c3ccc(CO)o3)[se]2)o1	0.17	0.375	> 100	> 100	> 95 µM	> 100	57.8 µM	> 100	53.4 µM	> 100	69.1	> 100	> 100	> 100	> 100 µM	> 100
CCOc1ccc2nc(SCc3nc4n(n3)S(=O)(=O)c3ccccc3N4C)sc2c1	> 100	> 100	> 100	> 100	> 100 µM	> 100	> 100 µM	> 100	86.4 µM	> 100			> 100	> 100	> 100 µM	> 100
COc1ccc(-c2cn[nH]c2-c2cc(OC)c3c(c2)OCO3)cc1	0.0632	1.13	0.78	48.8	0.102 µM	12.1	0.207 µM	12.9	0.0555 µM	1.68	0.262	21.8	1.22	28.5	2.97 µM	54.6
O=C1c2ccccc2-c2c1c1c(=O)[nH]c3ccccc3c1n2Cc1ccccc1	21.1	50.6	13	25.6	> 100 µM	> 100	> 100 µM	> 100	42.7 µM	> 100			84.7	> 100	25.1 µM	65.5
CCCNNC(=O)/C=C/c1ccc(CNCCc2c(C)[nH]c3ccccc23)cc1	0.00955	0.0244	0.0284	0.116	0.0123 µM	1.53	0.023 µM	1.94	0.0447 µM	4.19	0.0175	3.74	0.0253	0.0964	0.0768 µM	2.1
C=C1C(=O)O[C@H]2[C@H]1CC/C(COC(=O)CSCCSCC(=O)OC/C1=C/CC[C@@]3(C)O[C@H]3[C@H]3OC(=O)C(=C)[C@@H]3CC1)=C\CC[C@@]1(C)O[C@@H]21	2.75	10.7	1.7	3.23	1.36 µM	2.68	1.99 µM	4.34	1.29 µM	2.8	2.5	8.33	1.92	3.81	2.85 µM	9.61
COc1ccc2c(c1)C(=O)c1c-2n(CCCN=[N+]=[N-])c(=O)c2cc(OC)c(OC)cc12	> 100	> 100	10.2	25.8	> 100 µM	> 100			43.8 µM	> 100	50	> 100	> 100	> 100	47 µM	> 100
C=C1C(O)C2C(=C(CCc3ccccc3)C13CC3)C(=O)C(C)(CO)C2O (stereo not drawn)			> 100	> 100	> 100 µM	> 100	> 100 µM	> 100	> 100 µM	> 100	> 100	> 100	> 100	> 100	> 100 µM	> 100
COc1ccc(OC)c2c1CC(C(=O)O)(C(=O)O)CC2=O				> 100				> 100						> 100		> 100
COC(=O)N(C(=O)OC)C(C(=O)O)C(C)C (stereo not drawn)				> 100		> 100		> 100		> 100				> 100		> 100
C[N-]c1nnnn1C.[Au+].c1ccc([PH+](c2ccccc2)c2ccccc2)cc1			4.26	8.38	2 µM	4.53	2.34 µM	5.51					1.39	3.13	2.25 µM	6.18
CC(C)CC(NC(=O)c1cccc(O)c1O)C(=O)NCc1cc(CNC(=O)C(CC(C)C)NC(=O)c2cccc(O)c2O)cc(CNC(=O)C(CC(C)C)NC(=O)c2cccc(O)c2O)c1 (stereo not drawn)		> 100		> 100		30.9				16.8				68.5		47.3
O=c1nc(/C=C/c2ccccc2Cl)cc2n1CCN2CCO				> 100		> 100		> 100		47.4				> 100		
COc1cccc(-c2nc3sccn3c2-c2ccnc(NCCCNS(=O)(=O)c3cccc(F)c3)c2)c1			2.22	10.6	3.01 µM	23.9	2.35 µM	6.05	2.11 µM	8.41	2.12	11.6	2.96	9.82	5.6 µM	> 100
CCCCCC[N+](C)(C)Cc1ccc(C[N+](C)(C)CCCCCC)cc1		38.9		24.8		16		9.34						23.6		67.4
